For 17 compounds, IC50 results are on record in patent publication US20240124442A1, “TRICYCLIC-AMIDO-BICYCLIC PRMT5 INHIBITORS” (AMGEN INC., priority 2021, published 2024).

One experiment relates to HCT116 MTAP null cells. The experiment in a line: HCT116 MTAP null cell line proliferation / cell viability (CellTiter-Glo, 6 days). Type of experiment: cell-based. To be noted: 144 h; HCT116 MTAP null cells, 6 days treatment, CellTiter-Glo cell viability; read-out: HCT-116 MTAP null IC50. In short, it runs like this:
(§1)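 WT vs MTAP-null HCT116, 6 d drug, CTG readout. 1:3 × 8–9 pts (top 1/10 μM) or 1:2 × 22 pts (top 10/50 μM). IC50 by 4PL or Hill −1 fit.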

A further experiment deals with HCT116 WT cells. Put plainly: HCT116 WT (parent) cell line proliferation / cell viability (CellTiter-Glo, 6 days). Type of experiment: cell-based. To be noted: Homo sapiens, HCT-116, 144 h, 6 days treatment. In short, it runs like this:
as §1

pIC50: −log10 of the molar value.

Regarding `Cc1cc2nc(N)c3cnn(C)c3c2cc1C(=O)N(C)[C@@H]1COCc2nc(C(F)(F)F)ccc21` [Example 297, 4-amino-N,1,7-trimethyl-N-((5S)-2-(trifluoromethyl)-5,8-dihydro-6H-pyrano[3,4-b]pyr-idin-5-yl)-1H-pyrazolo[4,3-c]-quinoline-8-carboxamide], the values for the pIC50 with HCT116 MTAP null cells and in the experiment with HCT116 WT cells were 8.22 and 6.79, respectively.

For `Cc1cc2nc(N)c3cnn(C)c3c2cc1C(=O)N(C)[C@@H]1COCc2nc(Br)ccc21` [Example 298, 4-amino-N-((5S)-2-bromo-5,8-dihydro-6H-pyrano[3,4-b]-pyridin-5-yl)-N,1,7-trimethyl-1H-pyrazolo[4,3-c]quinoline-8-carboxamide], the pIC50 was 9.00 in the experiment on HCT116 MTAP null cells and 7.80 in the experiment on HCT116 WT cells.

Consider `Cc1nc2nc(N)c3cnn(C)c3c2cc1C(=O)N(C)[C@@H]1COCc2cc(C#N)ccc21` [Example 299, 4-amino-N-((4S)-7-cyano-3,4-dihydro-1H-2-benzopyran-4-yl)-N,1,7-trimethyl-1H-pyr-azolo[4,3-c][1,8]naphthyridine-8-carboxamide], for which the pIC50 in the experiment on HCT116 MTAP null cells is 7.43; in the experiment with HCT116 WT cells it was 5.82.

With `Cc1nc2nc(N)c3cnn(C)c3c2cc1C(=O)N(C)[C@@H]1COCc2cc(C(F)(F)F)ccc21` [Example 300, 4-amino-N,1,7-trimethyl-N-((4S)-7-(trifluoromethyl)-3,4-dihydro-1H-2-benzopyran-4-yl)-1H-pyrazolo[4,3-c][1,8]-naphthyridine-8-carboxamide], the negative logarithm of the IC50 (pIC50) was 7.80 with HCT116 MTAP null cells and 6.65 in the experiment with HCT116 WT cells.

Take `Cc1nc2nc(N)c3cnn(C)c3c2cc1C(=O)N(C)[C@@H]1COCc2nc(C(F)(F)F)ccc21` [Example 301, 4-amino-N,1,7-trimethyl-N-((5S)-2-(trifluoromethyl)-5,8-dihydro-6H-pyrano[3,4-b]pyridin-5-yl)-1H-pyrazolo-[4,3-c][1,8]naphthyridine-8-carboxamide]: the pIC50 with HCT116 MTAP null cells was 7.55; in the experiment on HCT116 WT cells it was 5.90.

`CN(C(=O)c1cc2c(cc1C(F)(F)F)nc(N)c1cnn(C)c12)[C@@H]1COCc2cc(C(F)(F)F)ccc21` [Example 302, 4-amino-N,1-dimethyl-7-(trifluoromethyl)-N-((4S)-7-(trifluoromethyl)-3,4-dihydro-1H-2-benzopyran-4-yl)-1H-pyrazolo[4,3-c]quinoline-8-carboxamide]: the results for the pIC50 in the experiment on HCT116 MTAP null cells and with HCT116 WT cells were 8.22 and 6.79, respectively.

In the case of `CN(C(=O)c1cc2c(cc1C(F)(F)F)nc(N)c1cnn(C)c12)[C@@H]1COCc2nc(C(F)(F)F)ccc21` [Example 303, 4-amino-N,1-dimethyl-7-(trifluoromethyl)-N-((5S)-2-(trifluoromethyl)-5,8-dihydro-6H-pyrano[3,4-b]pyridin-5-yl)-1H-pyrazolo[4,3-c]quinoline-8-carboxamide], the pIC50 with HCT116 MTAP null cells was 7.85; in the experiment on HCT116 WT cells it was 6.04.

Regarding `CN(C(=O)c1cc2c(cn1)nc(N)c1c2cnn1C)[C@@H]1COCc2nc(C(F)(F)F)ccc21` [Example 304, 4-amino-N,3-dimethyl-N-((5S)-2-(trifluoromethyl)-5,8-dihydro-6H-pyrano[3,4-b]pyridin-5-yl)-3H-pyrazolo[3,4-c][1,7]naph-thyridine-8-carboxamide], the pIC50 in the experiment with HCT116 MTAP null cells is 6.70; with HCT116 WT cells, 5.03.

As to `CCN(C(=O)c1cc2c(cc1F)nc(N)c1c2cnn1C)[C@@H]1COCc2nc(C(F)(F)F)ccc21` [Example 305, 4-amino-N-ethyl-7-fluoro-3-methyl-N-((5S)-2-(trifluoro-methyl)-5,8-dihydro-6H-pyrano[3,4-b]pyridin-5-yl)-3H-pyrazolo[3,4-c]quinoline-8-carboxamide], the results for the pIC50 in the experiment with HCT116 MTAP null cells and in the experiment on HCT116 WT cells were 7.70 and 6.37, respectively.

Turning to `CN(C(=O)c1cc2c(cc1F)nc(N)c1c2cnn1C)C1COCc2cc(OC(F)(F)F)ccc21` [Example 306, 4-amino-7-fluoro-N,3-dimethyl-N-((4R)-7-(trifluoromethoxy)-3,4-dihydro-1H-2-benzopyran-4-yl)-3H-pyrazolo[3,4-c]quin-oline-8-carboxamide and 4-amino-7-fluoro-N,3-dimethyl-N-((4S)-7-(trifluoromethoxy)-3,4-dihydro-1H-2-benzopyran-4-yl)-3H-pyrazolo[3,4-c]quin-oline-8-carboxamide], the figures for the pIC50 in the experiment on HCT116 MTAP null cells and with HCT116 WT cells were 6.95 and 5.30, respectively.

`CCN(C(=O)c1cc2c(cc1C)nc(N)c1c2cnn1C)[C@@H]1COCc2nc(C(F)(F)F)ccc21` [Example 307, 4-amino-N-ethyl-3,7-dimethyl-N-((5S)-2-(trifluoromethyl)-5,8-dihydro-6H-pyrano[3,4-b]-pyridin-5-yl)-3H-pyrazolo-[3,4-c]quinoline-8-carboxamide]: the values for the pIC50 in the experiment on HCT116 MTAP null cells and in the experiment with HCT116 WT cells were 7.72 and 6.33, respectively.

Turning to `Cc1n[nH]c2c1c(N)nc1ccc(C(=O)N(C)[C@@H]3COCc4nc(C(F)(F)F)ccc43)cc12` [Example 308, 4-amino-N,3-dimethyl-N-((5S)-2-(trifluoromethyl)-5,8-dihydro-6H-pyrano[3,4-b]pyridin-5-yl)-1H-pyrazolo[4,3-c]quinoline-8-carboxamide], the pIC50 in the experiment with HCT116 MTAP null cells is 7.12; in the experiment with HCT116 WT cells, 5.38.

Turning to `Cc1nn(C)c2c1c(N)nc1ccc(C(=O)N(C)[C@@H]3COCc4nc(C(F)(F)F)ccc43)cc12` [Example 309, 4-amino-N,1,3-trimethyl-N-((5S)-2-(trifluoromethyl)-5,8-dihydro-6H-pyrano[3,4-b]pyr-idin-5-yl)-1H-pyrazolo[4,3-c]-quinoline-8-carboxamide], the pIC50 in the experiment with HCT116 MTAP null cells was 6.82; in the experiment with HCT116 WT cells it was 5.02.

In the case of `Cc1n[nH]c2c1c(N)nc1cnc(C(=O)N(C)[C@@H]3COCc4nc(C(F)(F)F)ccc43)cc12` [Example 310, 4-amino-N,3-dimethyl-N-((5S)-2-(trifluoromethyl)-5,8-dihydro-6H-pyrano[3,4-b]pyridin-5-yl)-1H-pyrazolo-[4,3-c][1,7]naphthyridine-8-carboxamide], the pIC50 is 6.96 with HCT116 MTAP null cells and 5.13 with HCT116 WT cells.

With `Cc1nn(C)c2c1c(N)nc1cnc(C(=O)N(C)[C@@H]3COCc4cc(C(F)(F)F)ccc43)cc12` [Example 311, 4-amino-N,1,3-trimethyl-N-((4S)-7-(trifluoromethyl)-3,4-dihydro-1H-2-benzopyran-4-yl)-1H-pyrazolo[4,3-c][1,7]-naphthyridine-8-carboxamide], the figures for the pIC50 in the experiment on HCT116 MTAP null cells and with HCT116 WT cells were 7.52 and 5.99, respectively.

With `Cc1nn(C)c2c1c(N)nc1cnc(C(=O)N(C)[C@@H]3COCc4nc(C(F)(F)F)ccc43)cc12` [Example 312, 4-amino-N,1,3-trimethyl-N-((5S)-2-(trifluoromethyl)-5,8-dihydro-6H-pyrano[3,4-b]-pyridin-5-yl)-1H-pyrazolo-[4,3-c][1,7]naphthyridine-8-carboxamide], the pIC50 with HCT116 MTAP null cells is 6.99; in the experiment on HCT116 WT cells, 5.02.

On to `Cc1nn(C)c2c1c(N)nc1cc(F)c(C(=O)N(C)[C@@H]3COCc4cc(C(F)(F)F)ccc43)cc12` [Example 313, 4-amino-7-fluoro-N,1,3-trimeth-yl-N-((4S)-7-(trifluoromethyl)-3,4-dihydro-1H-2-benzopyran-4-yl)-1H-pyrazolo[4,3-c]quin-oline-8-carboxamide], for which the pIC50 in the experiment on HCT116 MTAP null cells is 7.85; in the experiment with HCT116 WT cells, 6.28.
